From PubChem BioAssay (NCI) come the findings set out here.

Some test systems named below: IGROV1 ovarian; M14 melanoma; MALME-3M melanoma; OVCAR-5 ovarian; OVCAR-8 ovarian; SF-539 CNS; SK-MEL-2 melanoma; SNB-19 CNS.
Assay in all cases: NCI-60 cell line screen, 48 h

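How tested: cells in 96-well plates exposed to compound for 48 hours at five concentrations. The concentration for 50% growth inhibition is given as GI50. TGI marks complete inhibition of growth.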

Consider `COc1ccccc1NC(=O)CC(=O)N1N=C(C)C(N=Nc2ccc(S(N)(=O)=O)cc2)C1=O` (stereo not drawn), for which the TGI in the assay with IGROV1 ovarian, with M14 melanoma, in the assay on MALME-3M melanoma, with OVCAR-5 ovarian, in the assay on OVCAR-8 ovarian and in the assay on SF-539 CNS was > 100 µM each time. In addition, the TGI in the assay with SK-MEL-2 melanoma and in the assay with SNB-19 CNS was > 100 µM each time.
On to `Cc1ccncc1.[O]=[Ge].[O]=[Ge].[O]=[Ge].[O]=[Ge].[O]=[Ge].[O]=[Ge][OH].[O]=[Ge][OH]`, for which the GI50 in the assay with IGROV1 ovarian, in the assay on M14 melanoma, with MALME-3M melanoma, in the assay on OVCAR-5 ovarian, with OVCAR-8 ovarian and in the assay on SF-539 CNS was > 100 µM in each case. The GI50 in the assay on SK-MEL-2 melanoma and in the assay with SNB-19 CNS was > 100 µM in each case. Besides, the TGI with IGROV1 ovarian, with M14 melanoma, in the assay with MALME-3M melanoma, in the assay with OVCAR-5 ovarian, in the assay with OVCAR-8 ovarian and with SF-539 CNS was > 100 µM in each case. The TGI in the assay with SK-MEL-2 melanoma and in the assay on SNB-19 CNS was > 100 µM throughout.
Consider `C[N+](C)(C)CC(=O)N/N=C(/Cc1nc2c3c(ccc2[nH]c1=O)C(=O)c1ccccc1C3=O)C(=O)Nc1ccc(Cl)c(Cl)c1`, for which the TGI in the assay with IGROV1 ovarian, with M14 melanoma, in the assay on MALME-3M melanoma, in the assay with OVCAR-5 ovarian, in the assay on OVCAR-8 ovarian and with SF-539 CNS was > 100 µM each time. In addition, in the assay on SK-MEL-2 melanoma, the TGI was > 100 µM.
Consider `CCOC(=O)C1=C(C)N(Cc2ccccc2)C(C)=C(C(=O)OCC)C1c1ccccc1O`, for which the TGI in the assay on IGROV1 ovarian is > 100 µM; in the assay on M14 melanoma, > 100 µM; in the assay on MALME-3M melanoma, 73.2 µM; in the assay on OVCAR-5 ovarian, > 100 µM; in the assay with OVCAR-8 ovarian, > 100 µM; with SF-539 CNS, 88.8 µM. For the same compound, the figures for the TGI with SK-MEL-2 melanoma and with SNB-19 CNS were 52.7 µM and > 100 µM, respectively.
As for `Cc1cc(N(CCC#N)S(=O)(=O)c2ccccc2)ccc1/C=C1N=C(/C=C/c2ccccc2)OC\1=O`, the TGI with IGROV1 ovarian, with M14 melanoma, with MALME-3M melanoma, with OVCAR-5 ovarian, in the assay with OVCAR-8 ovarian and in the assay with SF-539 CNS was > 100 µM throughout. For the same compound, the TGI in the assay on SK-MEL-2 melanoma and in the assay with SNB-19 CNS was > 100 µM each time.
Regarding `CCCCCCCCCCCCOC(=S)NCCCC`, the TGI stood at 81.1 µM in the assay with IGROV1 ovarian; 79 µM with M14 melanoma; 64 µM in the assay with MALME-3M melanoma; 51.4 µM in the assay with OVCAR-5 ovarian; 40.2 µM in the assay with OVCAR-8 ovarian; 48.5 µM with SF-539 CNS. Further, the TGI is 44.2 µM in the assay on SK-MEL-2 melanoma and > 100 µM with SNB-19 CNS.
With `CCCc1[nH]nc(CCC(=O)N(Cc2ccccc2)Cc2ccccc2)c1CC`, the TGI in the assay on IGROV1 ovarian, with M14 melanoma, in the assay on MALME-3M melanoma, in the assay on OVCAR-5 ovarian, in the assay with OVCAR-8 ovarian and with SF-539 CNS was > 100 µM each time. Besides, the TGI in the assay with SK-MEL-2 melanoma and in the assay with SNB-19 CNS was > 100 µM throughout.
As for `COCCN1C2=CCCCC2=Nc2c1nc(N)[nH]c2=O`, the TGI with IGROV1 ovarian, in the assay with M14 melanoma, with MALME-3M melanoma, in the assay on OVCAR-5 ovarian, in the assay with OVCAR-8 ovarian and in the assay on SF-539 CNS was > 100 µM throughout. For the same compound, the TGI with SNB-19 CNS is > 100 µM.
`c1cc(-c2cn3ccsc3n2)ccn1`: the TGI in the assay with IGROV1 ovarian is > 100 µM; in the assay on M14 melanoma, > 100 µM; with MALME-3M melanoma it was > 100 µM; with OVCAR-5 ovarian it was > 100 µM; with OVCAR-8 ovarian, > 63.8 µM; in the assay on SF-539 CNS it was > 100 µM. Besides, the TGI with SK-MEL-2 melanoma and in the assay on SNB-19 CNS was > 100 µM throughout.
Turning to `Cc1ccc(C(=O)O/N=C2/CCC/C2=C\c2ccccc2)cc1`, the TGI in the assay on IGROV1 ovarian, in the assay with M14 melanoma, in the assay with MALME-3M melanoma, in the assay on OVCAR-5 ovarian, with OVCAR-8 ovarian and with SF-539 CNS was > 100 µM in each case. The TGI with SK-MEL-2 melanoma was > 100 µM.
Consider `N#CC(C(=O)/C(=N/NC(=O)c1ccccc1O)C(C#N)c1ccc(Cl)cc1)c1ccc(Cl)cc1` (stereo not drawn), for which the TGI with M14 melanoma is 38.8 µM; in the assay with MALME-3M melanoma, 25.5 µM; in the assay on OVCAR-5 ovarian, 34.3 µM; with OVCAR-8 ovarian it was 26.3 µM; in the assay with SF-539 CNS, 31.3 µM; with SK-MEL-2 melanoma, 30.1 µM. Further, the TGI in the assay on SNB-19 CNS amounted to 30.2 µM.
Regarding `NC(=S)N/N=C(/CC(=O)c1ccccc1)C(=O)Nc1ccc(Cl)c(Cl)c1`, the TGI in the assay with IGROV1 ovarian, in the assay with M14 melanoma, in the assay with MALME-3M melanoma, in the assay on OVCAR-5 ovarian, with OVCAR-8 ovarian and with SF-539 CNS was > 100 µM throughout. Also, the TGI with SK-MEL-2 melanoma and in the assay with SNB-19 CNS was > 100 µM each time.
With `CC(C)C(=O)Nc1nc2nc[nH]c2c(=O)[nH]1`, the TGI in the assay with IGROV1 ovarian, with M14 melanoma, in the assay with MALME-3M melanoma, with OVCAR-5 ovarian, in the assay with OVCAR-8 ovarian and in the assay on SF-539 CNS was > 100 µM in each case. The TGI in the assay with SK-MEL-2 melanoma and in the assay with SNB-19 CNS was > 100 µM in each case.
In the case of `O=c1c2c([nH]c3cc4c(cc13)OCO4)-c1ccccc1CC2`, the TGI in the assay on IGROV1 ovarian, with M14 melanoma, in the assay with MALME-3M melanoma, in the assay with OVCAR-8 ovarian, in the assay with SF-539 CNS and in the assay on SK-MEL-2 melanoma was > 100 µM throughout. Further, the TGI in the assay on SNB-19 CNS was > 100 µM.
As to `COc1ccc2c(c1)C(O)(C(F)(F)F)c1cc(C(=O)C(F)(F)F)c3ccccc3c1N2` (stereo not drawn), the TGI was determined as 27.9 µM with IGROV1 ovarian; 18.1 µM with M14 melanoma; 27.5 µM in the assay on OVCAR-5 ovarian; 31.3 µM with SF-539 CNS; 25.2 µM in the assay on SK-MEL-2 melanoma; 29.5 µM in the assay on SNB-19 CNS.
As for `Cc1ccc(-c2c(N)[n+]([O-])c3ccccc3[n+]2[O-])cc1`, the TGI in the assay on IGROV1 ovarian was 29.8 µM; in the assay with M14 melanoma, 25.3 µM; with MALME-3M melanoma, 10.8 µM; in the assay with OVCAR-5 ovarian, 32.5 µM; with OVCAR-8 ovarian, > 100 µM; in the assay on SF-539 CNS it was 29.3 µM. Moreover, the results for the TGI in the assay on SK-MEL-2 melanoma and in the assay on SNB-19 CNS were 22.9 µM and 25.4 µM, respectively.
Take `CC1=NCCc2c1[nH]c1cc(O)ccc21`: the TGI in the assay with IGROV1 ovarian, in the assay with M14 melanoma, with MALME-3M melanoma, with OVCAR-5 ovarian, in the assay with OVCAR-8 ovarian and in the assay on SF-539 CNS was > 100 µM each time. The TGI in the assay on SK-MEL-2 melanoma and in the assay on SNB-19 CNS was > 100 µM throughout.
With `COc1cc2c(cc1OC)C(N(C)C)C(c1ccccc1)=C2Cl` (stereo not drawn), the TGI with IGROV1 ovarian is 47.5 µM; with M14 melanoma it was 34.3 µM; in the assay with OVCAR-5 ovarian, > 100 µM; in the assay on OVCAR-8 ovarian, 47.8 µM; in the assay on SF-539 CNS it was 37.7 µM; in the assay on SK-MEL-2 melanoma, 36 µM. Further, the TGI in the assay with SNB-19 CNS is > 100 µM.
Consider `COC(=O)c1csnn1`, for which the TGI in the assay on IGROV1 ovarian, with M14 melanoma, with MALME-3M melanoma, with OVCAR-8 ovarian, in the assay with SF-539 CNS and in the assay with SNB-19 CNS was > 100 µM throughout.
With `C=CCC1([C@H](C)[C@@H](OC(C)=O)c2cc(OC)c(OC)c(OC)c2)C[C@@H](OC)CCC1=O` (stereo partly drawn), the TGI turned out to be 33.5 µM in the assay with IGROV1 ovarian; 30.4 µM in the assay with M14 melanoma; 43.1 µM in the assay with MALME-3M melanoma; 54.2 µM in the assay with OVCAR-8 ovarian; 30.8 µM in the assay on SF-539 CNS; 38.9 µM with SK-MEL-2 melanoma.
Consider `CC(C)(C)OC(=O)C#CC[C@H]1CCCC1/C=C/C(O)=C1/C(=O)NC(CCCNC(=O)OC(C)(C)C)C1=O` (stereo partly drawn), for which the TGI was > 100 µM with IGROV1 ovarian; > 100 µM in the assay on M14 melanoma; 57.6 µM with MALME-3M melanoma; > 100 µM in the assay on OVCAR-5 ovarian; 31.6 µM with OVCAR-8 ovarian; 83.1 µM in the assay on SF-539 CNS. Also, the TGI is 34.4 µM with SK-MEL-2 melanoma and 88.5 µM with SNB-19 CNS.
With `O=Cc1cn(C(=O)c2ccccc2)c2ccccc12`, the TGI in the assay on IGROV1 ovarian, in the assay on M14 melanoma, in the assay with MALME-3M melanoma, in the assay on OVCAR-5 ovarian, in the assay on OVCAR-8 ovarian and with SF-539 CNS was > 100 µM in each case. In the assay on SK-MEL-2 melanoma, the TGI was > 100 µM.
As to `CC1CCCCc2nc3c(c(=O)n21)CCCC3` (stereo not drawn), the TGI in the assay with IGROV1 ovarian, in the assay with M14 melanoma, in the assay on MALME-3M melanoma, in the assay on OVCAR-5 ovarian, in the assay on OVCAR-8 ovarian and in the assay on SF-539 CNS was > 100 µM throughout. The TGI in the assay with SK-MEL-2 melanoma and with SNB-19 CNS was > 100 µM each time.
Regarding `Cc1cccc(NC(=O)CC(=O)N2N=C(N(CCC#N)c3ccc(Cl)cc3)CC2c2ccccc2)c1` (stereo not drawn), the TGI with IGROV1 ovarian, in the assay with M14 melanoma, in the assay with MALME-3M melanoma, in the assay on OVCAR-5 ovarian, in the assay with OVCAR-8 ovarian and in the assay with SF-539 CNS was > 100 µM in each case. In addition, in the assay on SNB-19 CNS, the TGI is > 100 µM.
Take `COC(=O)CCC1CCc2c(OC)ccc(O)c2C1=O` (stereo not drawn): the TGI in the assay on IGROV1 ovarian, in the assay with M14 melanoma, with MALME-3M melanoma, in the assay on OVCAR-8 ovarian, in the assay on SF-539 CNS and in the assay on SK-MEL-2 melanoma was > 100 µM each time. In addition, the TGI with SNB-19 CNS is > 100 µM.
